Here are results for 16 compounds from patent US9233947B2, “Sulfamides as TRPM8 modulators” (Janssen Pharmaceutica, NV, priority 2008, dated 2016).

One test addresses canine TRPM8 (Canis lupus familiaris, UniProt Q1A7N1). Nature of the test: In Vitro Canine TRPM8 Functional Assay (intracellular Ca2+ fluorescence, icilin activation). Type of test: cell-based. Particulars: HEK293 cells stably expressing canine TRPM8; for inhibition at 0.2 µM / % Inh @ 0.2 (μM): 0.2 μM compound, icilin challenge; for IC50: icilin challenge at ~80% maximal response, eight-point dose-response, single determinations, read-out: IC50 (μM) @ 0.2. The protocol: The functional activity of compounds of the formula (I) was determined by measuring changes in intracellular calcium concentration using a Ca^2+-sensitive fluorescent dye. The changes in fluorescent signal were monitored by a fluorescence plate reader, either a FLIPR™ (Molecular Devices) or FDSS (Hamamatsu).
At 24 hrs prior to assay, HEK293 cells stably expressing canine TRPM8 were seeded in culture medium in black wall, clear-base poly-D-lysine coated 384-well plates (BD Biosciences, NJ, USA) and grown overnight in 5% CO2 at 37° C. On assay day, growth media was removed and cells were loaded with Calcium 3 Dye (Molecular Devices) for 35 min at 37° C., under 5% CO2 and then for 25 min at room temperature and atmosphere. Subsequently, cells were tested for agonist-induced increases in intracellular Ca^2+ levels using FLIPR™ or FDSS. Cells were challenged with a compound of the Formula (I) (at varying concentrations) and intracellular Ca^2+ was measured for 5 min prior to the addition of icilin to all wells to achieve a final concentration that produces approximately an 80% maximal response. EC50 or IC50 values for compounds of the present invention were determined from eight-point dose-response studies. Curves were generated using the average of quadruplicate wells for each data point.

The test system of test [1] is icilin-induced "wet-dog" shakes. Nature of the test: Reversal of icilin-induced "wet-dog" shaking behavior in rats. Particulars: 10 mg/kg p.o., 1 h post-icilin, relative to WDS count prior to test compound dose. Type of test: in vivo. The protocol: Male Sprague Dawley rats (220-450 g, Charles River Labs, n=6-9/treatment) may be used to evaluate the ability of selected compounds of the formula (I) to block icilin-induced “wet-dog” shakes (WDS). Compounds of the formula (I) may be administered in an appropriate vehicle, such as hydroxypropyl-β-cyclodextrin (HPβCD), methocellulose, 10% Solutol, or H2O, or the like, by the appropriate route, i.p. or p.o., 30-120 minutes before icilin. Icilin may be administered in PEG-400 or 10% solutol/H2O, at 1.0 or 3.0 mg/kg, i.p. and spontaneous “wet-dog” shakes may be counted 10-20 minutes post-icilin.
Compounds of the present invention capable of inhibiting the onset of icilin-induced “wet-dog” shaking behavior may also be assessed for their ability to reverse an existing icilin-induced “wet-dog” shaking behavior. In this paradigm, icilin-induced shaking is counted for 10 minutes followed by administration of a compound of the present invention in a suitable vehicle such as hydroxypropyl methylcellulose, hydroxypropyl-β-cyclodextrin or 10% Solutol in water. The diminution of shaking behavior is represented as a percent inhibition relative to icilin-induced shakes in the absence of test compound administration, as described by the following formula: % Inhibition=[1−(WDS count following test compound dose/WDS count prior to test compound dose)]×100.

Sequence of canine TRPM8 (Q1A7N1 1-1104): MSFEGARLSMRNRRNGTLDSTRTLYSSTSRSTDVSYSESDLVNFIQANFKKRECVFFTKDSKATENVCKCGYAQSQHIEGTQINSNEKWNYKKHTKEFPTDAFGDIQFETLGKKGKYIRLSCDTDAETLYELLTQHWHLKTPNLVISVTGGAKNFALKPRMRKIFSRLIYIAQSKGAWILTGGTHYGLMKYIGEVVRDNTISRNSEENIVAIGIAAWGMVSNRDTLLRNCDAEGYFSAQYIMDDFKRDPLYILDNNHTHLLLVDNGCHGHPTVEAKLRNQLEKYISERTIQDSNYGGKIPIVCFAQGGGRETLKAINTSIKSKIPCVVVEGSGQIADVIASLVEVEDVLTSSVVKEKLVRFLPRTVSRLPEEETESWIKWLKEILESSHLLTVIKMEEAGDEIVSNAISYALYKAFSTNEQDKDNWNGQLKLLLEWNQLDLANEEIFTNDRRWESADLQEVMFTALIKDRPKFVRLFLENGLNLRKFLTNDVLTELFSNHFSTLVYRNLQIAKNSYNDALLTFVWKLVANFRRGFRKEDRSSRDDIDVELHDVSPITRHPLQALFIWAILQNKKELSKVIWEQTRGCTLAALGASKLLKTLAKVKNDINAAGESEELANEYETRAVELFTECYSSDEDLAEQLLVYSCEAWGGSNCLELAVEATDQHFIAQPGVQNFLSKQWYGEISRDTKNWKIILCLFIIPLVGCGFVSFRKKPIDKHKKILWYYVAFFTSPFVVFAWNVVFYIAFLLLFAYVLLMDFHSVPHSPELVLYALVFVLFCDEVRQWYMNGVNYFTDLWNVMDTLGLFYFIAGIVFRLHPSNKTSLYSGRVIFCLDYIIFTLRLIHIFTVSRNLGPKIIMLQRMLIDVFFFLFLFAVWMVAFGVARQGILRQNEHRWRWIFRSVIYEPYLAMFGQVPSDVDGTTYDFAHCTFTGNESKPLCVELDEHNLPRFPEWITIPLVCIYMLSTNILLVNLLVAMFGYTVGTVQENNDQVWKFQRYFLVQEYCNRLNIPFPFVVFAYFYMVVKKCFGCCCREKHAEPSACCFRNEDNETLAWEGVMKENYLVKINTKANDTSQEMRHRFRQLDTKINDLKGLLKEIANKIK

Consider `Cc1c(N(Cc2ccc(OC(F)(F)F)cc2)S(=O)(=O)N2CCC(C(=O)NCCN(C)C)CC2)sc2ccccc12` [Compound 12, 1-[(3-Methyl-benzo[b]thiophen-2-yl)-(4-trifluoromethoxy-benzyl)-sulfamoyl]-piperidine-4-carboxylic acid (2-dimethylamino-ethyl)-amide], for which, at canine TRPM8, the inhibition at 0.2 µM is 70% and the 50% inhibitory concentration (IC50) was found to be 0.061 µM.
As for `O=C(O)CCCCNS(=O)(=O)N(Cc1ccc(F)c(C(F)(F)F)c1)c1sc2ccccc2c1Br` [Compound 16], at canine TRPM8, the “% Inh @ 0.2 (μM)” value is reported as 101% and the half-maximal inhibitory concentration (IC50) stood at 0.0085 µM.
For the compound `Cc1c(N(Cc2ccc(OC(F)(F)F)cc2)S(=O)(=O)N2CCC(C(=O)N3CCN(C)CC3)CC2)sc2ccccc12` [Compound 11], at canine TRPM8, the “% Inh @ 0.2 (μM)” value came out at 30%.
Regarding `Cc1c(N(Cc2ccc(OC(F)(F)F)cc2)S(=O)(=O)N2CCCCC2)sc2ccccc12` [Compound 1, Piperidine-1-sulfonic acid (3-methyl-benzo[b]thiophen-2-yl)-(4-trifluoromethoxy-benzyl)-amide], at canine TRPM8, the inhibition at 0.2 µM came out at 99% and the IC50 worked out at 0.0036 µM.
With `O=C(O)CNS(=O)(=O)N(Cc1ccc(F)c(C(F)(F)F)c1)c1sc2ccccc2c1Br` [Compound 14, N-(3-Bromo-benzo[b]thiophen-2-yl)-N-(4-fluoro-3-trifluorobenzyl)-(N-acetic acid)-sulfonamide], the “% Inh @ 0.2 (μM)” value on canine TRPM8 was 33%.
In the case of “4-Isopropyl-piperazine-1-sulfonic acid (3-methyl-benzo[b]thiophen-2-yl)-(4-trifluoromethoxy-benzyl)-sulfamoyl]-amide [Compound 4]”, on canine TRPM8, the IC50 turned out to be 0.06 µM.
For the compound `Cc1c(N(Cc2ccc(F)c(C(F)(F)F)c2)S(=O)(=O)NCCCC(=O)O)sc2ccccc12` [Compound 13, N-(4-Fluoro-3-trifluoromethyl-benzyl)-N-(3-methyl-benzo[b]-thiophen-2-yl)-N′-(butyric acid)-sulfonamide], at canine TRPM8, the “% Inh @ 0.2 (μM)” value amounted to 72% and the IC50 stood at 0.062 µM.
For the compound `Cc1c(N(Cc2ccc(OC(F)(F)F)cc2)S(=O)(=O)N2CCC(C(=O)O)CC2)sc2ccccc12` [Compound 10, 1-[(3-Methyl-benzo[b]thiophen-2-yl)-(4-trifluoromethoxy-benzyl)-sulfamoyl]-piperidine-4-carboxylic acid], the “% Inhibition” value in test [1] came out at 57%. On canine TRPM8, the inhibition at 0.2 µM worked out at 101% and the 50% inhibitory concentration (IC50) was found to be 0.0046 µM.
For `Cc1c(N(Cc2ccc(OC(F)(F)F)cc2)S(=O)(=O)N2CCN(CC(F)(F)F)CC2)sc2ccccc12` [Compound 7], at canine TRPM8, the “% Inh @ 0.2 (μM)” value stood at 100% and the half-inhibitory concentration (IC50) is 0.013 µM.
Consider `Cc1c(N(Cc2ccc(OC(F)(F)F)cc2)S(=O)(=O)NS(=O)(=O)N2CCN(N3CCCC3)CC2)sc2ccccc12` [Compound 9], for which the “% Inh @ 0.2 (μM)” value at canine TRPM8 is 9%.
As for `O=C(O)CCCNS(=O)(=O)N(Cc1ccc(F)c(C(F)(F)F)c1)c1sc2ccccc2c1Br` [Compound 15, N-(3-Bromo-benzo[b]thiophen-2-yl)-N-(4-fluoro-3-trifluorobenzyl)-(N-butyric acid)-sulfonamide], at canine TRPM8, the “% Inh @ 0.2 (μM)” value turned out to be 101% and the IC50 was 0.018 µM.
As to `Cc1c(N(Cc2ccc(OC(F)(F)F)cc2)S(=O)(=O)NS(=O)(=O)N2CCC(N(C)C)CC2)sc2ccccc12` [Compound 8], the “% Inh @ 0.2 (μM)” value at canine TRPM8 is reported as 36%.
Take `Cc1c(N(Cc2ccc(OC(F)(F)F)cc2)S(=O)(=O)N2CCOCC2)sc2ccccc12` [Compound 2, Morpholine-1-sulfonic acid (3-methyl-benzo[b]thiophen-2-yl)-(4-trifluoromethoxy-benzyl)-amide]: on canine TRPM8, the “% Inh @ 0.2 (μM)” value was 100% and the IC50 is 0.0057 µM.
`Cc1c(N(Cc2ccc(OC(F)(F)F)cc2)S(=O)(=O)NS(=O)(=O)N2CCNCC2)sc2ccccc12` [Compound 3]: the “% Inh @ 0.2 (μM)” value at canine TRPM8 was found to be 19%.
On to “4-(3-Methyl-butyl)-piperazine-1-sulfonic acid (3-methyl-benzo[b]thiophen-2-yl)-(4-trifluoromethoxy-benzyl)-sulfamoyl]-amide [Compound 5]”, for which the IC50 on canine TRPM8 came out at 0.071 µM.
With “4-Methyl-piperazine-1-sulfonic acid (3-methyl-benzo[b]thiophen-2-yl)-(4-trifluoromethoxy-benzyl)-sulfamoyl]-amide [Compound 6]”, at canine TRPM8, the “% Inh @ 0.2 (μM)” value amounted to 90% and the IC50 was determined as 0.046 µM.
